Assay results as given in paper PMC12274840 (The Journal of Biological Chemistry, 2025).
≈ marks a conversion by molar mass, not a printed value. Like-named read-outs stand apart in the source and are kept apart here.

Columns and labels:
Assay type in all cases: cell-based
[1] = test system: E. coli KA797 cells carrying pUK21 vector without the β-lactamase gene; experiment: microbe, parasite or virus in culture; settings: Escherichia coli; antibiotic alone; pUK21 without β-lactamase gene; read-out: MIC
[2] = test system: E. coli KA797 cells carrying pUK21 with CTX-M-14 WT (Tat); experiment: microbe, parasite or virus in culture; settings: Escherichia coli, antibiotic alone
[3] = test system: E. coli KA797 cells carrying NmcA position 105 library
[4] = test system: E. coli KA797 cells carrying TEM-1 position 105 library; settings: for Fi carbenicillin AVG: average of replicates

CC1(C)S[C@@H]2[C@H](NC(=O)C(C(=O)O)c3ccccc3)C(=O)N2[C@H]1C(=O)O (stereo partly shown) [carbenicillin]
MIC [1]: 10 µg/mL (≈ 0.0264 mM) | MIC [2]: 16000 µg/mL (≈ 42.3 mM) | Fi AVG (average fitness of replicates) ([3]; NmcA AA 105 Ala): -0.798 | Significance of average fitness ([3]; NmcA AA 105 Ala): - | Fi AVG (average fitness of replicates) ([3]; NmcA AA 105 Arg): -0.438 | Significance of average fitness ([3]; NmcA AA 105 Arg): - | Fi AVG (average fitness of replicates) ([3]; NmcA AA 105 Asn): -0.329 | Significance of average fitness ([3]; NmcA AA 105 Asn): - | Fi AVG (average fitness of replicates) ([3]; NmcA AA 105 Asp): -0.908 | Significance of average fitness ([3]; NmcA AA 105 Asp): - | Fi AVG (average fitness of replicates) ([3]; NmcA AA 105 Cys): -0.727 | Significance of average fitness ([3]; NmcA AA 105 Cys): - | Fi AVG (average fitness of replicates) ([3]; NmcA AA 105 Gln): -0.466 | Significance of average fitness ([3]; NmcA AA 105 Gln): - | Fi AVG (average fitness of replicates) ([3]; NmcA AA 105 Glu): -0.772 | Significance of average fitness ([3]; NmcA AA 105 Glu): - | Fi AVG (average fitness of replicates) ([3]; NmcA AA 105 Gly): -0.274 | Significance of average fitness ([3]; NmcA AA 105 Gly): - | Fi AVG (average fitness of replicates) ([3]; NmcA AA 105 His): 0.000 | Fi AVG (average fitness of replicates) ([3]; NmcA AA 105 Ile): -0.761 | Significance of average fitness ([3]; NmcA AA 105 Ile): - | Fi AVG (average fitness of replicates) ([3]; NmcA AA 105 Leu): -0.728 | Significance of average fitness ([3]; NmcA AA 105 Leu): - | Fi AVG (average fitness of replicates) ([3]; NmcA AA 105 Lys): -0.642 | Significance of average fitness ([3]; NmcA AA 105 Lys): - | Fi AVG (average fitness of replicates) ([3]; NmcA AA 105 Met): -0.481 | Significance of average fitness ([3]; NmcA AA 105 Met): - | Fi AVG (average fitness of replicates) ([3]; NmcA AA 105 Phe): -0.458 | Significance of average fitness ([3]; NmcA AA 105 Phe): - | Fi AVG (average fitness of replicates) ([3]; NmcA AA 105 Pro): -0.671 | Significance of average fitness ([3]; NmcA AA 105 Pro): - | Fi AVG (average fitness of replicates) ([3]; NmcA AA 105 Ser): -0.589 | Significance of average fitness ([3]; NmcA AA 105 Ser): - | Fi AVG (average fitness of replicates) ([3]; NmcA AA 105 Thr): -0.842 | Significance of average fitness ([3]; NmcA AA 105 Thr): - | Fi AVG (average fitness of replicates) ([3]; NmcA AA 105 Trp): -0.118 | Significance of average fitness ([3]; NmcA AA 105 Trp): - | Fi AVG (average fitness of replicates) ([3]; NmcA AA 105 Tyr): -0.304 | Significance of average fitness ([3]; NmcA AA 105 Tyr): - | Fi AVG (average fitness of replicates) ([3]; NmcA AA 105 Val): -0.711 | Significance of average fitness ([3]; NmcA AA 105 Val): - | WT abs Fi 1 (absolute fitness) ([3]; NmcA WT, replicate 1): 0.462 | WT abs Fi 2 (absolute fitness) ([3]; NmcA WT, replicate 2): 0.578 | Significance (Average fitnes carbenicillin) ([4]; AA 105 Ala): - | Fi carbenicillin AVG ([4]; AA 105 Ala): -0.528 | Fi CAR 1 ([4]; AA 105 Ala, replicate 1): -0.503 | Fi CAR 2 ([4]; AA 105 Ala, replicate 2): -0.553 | Significance (Average fitnes carbenicillin) ([4]; AA 105 Arg): - | Fi carbenicillin AVG ([4]; AA 105 Arg): -0.371 | Fi CAR 1 ([4]; AA 105 Arg, replicate 1): -0.360 | Fi CAR 2 ([4]; AA 105 Arg, replicate 2): -0.382 | Fi carbenicillin AVG ([4]; AA 105 Asn): -0.119 | Fi CAR 1 ([4]; AA 105 Asn, replicate 1): -0.088 | Fi CAR 2 ([4]; AA 105 Asn, replicate 2): -0.150 | Significance (Average fitnes carbenicillin) ([4]; AA 105 Asp): - | Fi carbenicillin AVG ([4]; AA 105 Asp): -1.040 | Fi CAR 1 ([4]; AA 105 Asp, replicate 1): -1.009 | Fi CAR 2 ([4]; AA 105 Asp, replicate 2): -1.070 | Significance (Average fitnes carbenicillin) ([4]; AA 105 Cys): - | Fi carbenicillin AVG ([4]; AA 105 Cys): -0.639 | Fi CAR 1 ([4]; AA 105 Cys, replicate 1): -0.611 | Fi CAR 2 ([4]; AA 105 Cys, replicate 2): -0.666 | Significance (Average fitnes carbenicillin) ([4]; AA 105 Gln): - | Fi carbenicillin AVG ([4]; AA 105 Gln): -0.400 | Fi CAR 1 ([4]; AA 105 Gln, replicate 1): -0.384 | Fi CAR 2 ([4]; AA 105 Gln, replicate 2): -0.417 | Significance (Average fitnes carbenicillin) ([4]; AA 105 Glu): - | Fi carbenicillin AVG ([4]; AA 105 Glu): -0.893 | Fi CAR 1 ([4]; AA 105 Glu, replicate 1): -0.890 | Fi CAR 2 ([4]; AA 105 Glu, replicate 2): -0.895 | Fi carbenicillin AVG ([4]; AA 105 Gly): -0.181 | Fi CAR 1 ([4]; AA 105 Gly, replicate 1): -0.158 | Fi CAR 2 ([4]; AA 105 Gly, replicate 2): -0.204 | Fi carbenicillin AVG ([4]; AA 105 His): -0.182 | Fi CAR 1 ([4]; AA 105 His, replicate 1): -0.177 | Fi CAR 2 ([4]; AA 105 His, replicate 2): -0.187 | Significance (Average fitnes carbenicillin) ([4]; AA 105 Ile): - | Fi carbenicillin AVG ([4]; AA 105 Ile): -0.707 | Fi CAR 1 ([4]; AA 105 Ile, replicate 1): -0.683 | Fi CAR 2 ([4]; AA 105 Ile, replicate 2): -0.731 | Significance (Average fitnes carbenicillin) ([4]; AA 105 Leu): - | Fi carbenicillin AVG ([4]; AA 105 Leu): -0.631 | Fi CAR 1 ([4]; AA 105 Leu, replicate 1): -0.615 | Fi CAR 2 ([4]; AA 105 Leu, replicate 2): -0.647 | Significance (Average fitnes carbenicillin) ([4]; AA 105 Lys): - | Fi carbenicillin AVG ([4]; AA 105 Lys): -0.496 | Fi CAR 1 ([4]; AA 105 Lys, replicate 1): -0.486 | Fi CAR 2 ([4]; AA 105 Lys, replicate 2): -0.506 | Significance (Average fitnes carbenicillin) ([4]; AA 105 Met): - | Fi carbenicillin AVG ([4]; AA 105 Met): -0.369 | Fi CAR 1 ([4]; AA 105 Met, replicate 1): -0.357 | Fi CAR 2 ([4]; AA 105 Met, replicate 2): -0.382 | Fi carbenicillin AVG ([4]; AA 105 Phe): -0.152 | Fi CAR 1 ([4]; AA 105 Phe, replicate 1): -0.133 | Fi CAR 2 ([4]; AA 105 Phe, replicate 2): -0.171 | Significance (Average fitnes carbenicillin) ([4]; AA 105 Pro): - | Fi carbenicillin AVG ([4]; AA 105 Pro): -0.936 | Fi CAR 1 ([4]; AA 105 Pro, replicate 1): -0.929 | Fi CAR 2 ([4]; AA 105 Pro, replicate 2): -0.943 | Significance (Average fitnes carbenicillin) ([4]; AA 105 Ser): - | Fi carbenicillin AVG ([4]; AA 105 Ser): -0.354 | Fi CAR 1 ([4]; AA 105 Ser, replicate 1): -0.356 | Fi CAR 2 ([4]; AA 105 Ser, replicate 2): -0.352 | Significance (Average fitnes carbenicillin) ([4]; AA 105 Thr): - | Fi carbenicillin AVG ([4]; AA 105 Thr): -0.562 | Fi CAR 1 ([4]; AA 105 Thr, replicate 1): -0.532 | Fi carbenicillin AVG ([4]; AA 105 Trp): -0.027 | Fi CAR 1 ([4]; AA 105 Trp, replicate 1): -0.012 | Fi CAR 2 ([4]; AA 105 Trp, replicate 2): -0.043 | Fi carbenicillin AVG ([4]; AA 105 Tyr): 0.000 | Fi CAR 1 ([4]; AA 105 Tyr, replicate 1): 0.000 | Fi CAR 2 ([4]; AA 105 Tyr, replicate 2): 0.000 | Significance (Average fitnes carbenicillin) ([4]; AA 105 Val): - | Fi carbenicillin AVG ([4]; AA 105 Val): -0.544 | Fi CAR 1 ([4]; AA 105 Val, replicate 1): -0.508 | Fi CAR 2 ([4]; AA 105 Val, replicate 2): -0.579 | WT abs Fi 1 ([4]; absolute fitness of TEM-1 WT, carbenicillin, replicate 1): 0.724 | WT abs Fi 2 ([4]; absolute fitness of TEM-1 WT, carbenicillin, replicate 2): 0.359
